No end group written: not given here.

What all share (type): cell-based
The subject of assay [1] is T98G glioblastoma cells. Description: Cell number (growth and survival) after peptide treatment, T98G. Particulars: for growth and survival of T98G cells, time course: 10 μM or 20 μM for 1-6 days; for growth and survival of T98G cells, time course / number of T98G cells / morphology, growth and survival of T98G cells: stock without BSA; for number of T98G cells: 6-7 days; for number of T98G cells / effect of BSA in stock buffer on potency in suppressing growth and survival: 0 μM to 50 μM; for morphology, growth and survival of T98G cells: 5 days, 10 or 20 μM (CP-DN-CEBPB), 3, 10, 20 or 50 μM (CP-DN-CEBPD); for effect of BSA in stock buffer on potency in suppressing growth and survival: 6 days, BSA 3 mg/ml in stock, 0.6 mg/ml in medium. The procedure:
Replicate T98G glioblastoma cell cultures were exposed to dominant negative (DN) synthetic peptides having an N-terminal penetratin sequence followed by a CEBPB or CEBPD native leucine zipper sequence (CP-DN-CEBPB or CP-DN-CEBPD, respectively) for 5 days at final concentrations of 10 μM or 20 μM (CP-DN-CEBPB) or 3 μM, 10 μM, 20 μM or 50 μM (CP-DN-CEBPD). Stock solutions of the peptides were prepared in buffer without added bovine serum albumin (BSA).
Replicate T98G glioblastoma cell cultures were exposed to CP-DN-CEBPB or CP-DN-CEBPD, for 6-7 days at doses of 0 μM to 50 μM. […] Stock solutions of the peptides were prepared in buffer without added bovine serum albumin (BSA).
Replicate T98G cell cultures were exposed to CP-DN-CEBPB or CP-DN-CEBPD peptides (10 μM or 20 μM) for 1, 2, 3, 4, 5, or 6 days. […] Values shown in FIG. 7A and FIG. 7B represent means from 3 replicate cultures. Stock solutions of the peptides were prepared in buffer without added bovine serum albumin (BSA).
Four replicate cultures of T98G cells were treated for 6 days with a cell penetrating dominant negative CEBPB (CP-DN-CEBPB; FIG. 8A) or a cell penetrating dominant negative CEBPD (CP-DN-CEBPD; FIG. 8B) at doses of 0 μM to 50 μM, with or without bovine serum albumin (BSA). […] Concentration of BSA in the stock solution, when present, was 3 mg/ml. The final concentration of BSA in the cell culture medium was 0.6 mg/ml. Values represent means of determinations made on 4 replicate cultures for each condition.
(§1) Replicate cultures of HCT116, MDA-MB 231, MCF7, and T98G cells were exposed to a 50/50 by concentration mixture of CP-DN-CEBPB and CP-DN-CEBPD for 6 days at doses of 0 μM to 50 μM. Stock solutions of the peptides were prepared in buffer without added bovine serum albumin (BSA).
(§2) Replicate cultures of T98G, HCT116, MDA-MB 231, and MCF7 cells were exposed to CP-DN-CEBPB, CP-DN-CEBPD, or a CP-DN-CEBPD in which heptad repeat leucine residues were mutated to glycine residues for 6 days at doses of 0 μM to 50 μM. Stock solutions of the peptides were prepared in buffer without added bovine serum albumin (BSA).

In assay [2] the test system is MCF7 breast cancer cells. The assay can be described thus: Cell number after peptide treatment, MCF7. Particulars: 6 days, 0 μM to 50 μM; stock without BSA. The procedure: Replicate cultures were exposed to the peptides the for 6 days at the indicated concentrations. Stock solutions of the peptides were prepared in buffer without added bovine serum albumin (BSA).
as §1, §2

Assay [3] concerns MCF10A non-cancer human breast epithelial cells. Description: Cell number after peptide treatment, MCF10A. The note with it: 6 days, 0 μM to 50 μM; stock without BSA. The procedure:
Replicate cultures of HIEC-6 non-cancer human intestinal epithelial cells, MCF10A non-cancer human breast epithelial cells, or normal human astrocytes were exposed to CP-DN-CEBPB or CP-DN-CEBPD, for 6 days at doses of 0 μM to 50 μM. […] Stock solutions of the peptides were prepared in buffer without added bovine serum albumin (BSA).

Assay [4] has as its system HCT116 cells. The assay can be described thus: Colony forming activity in soft agar, HCT116. The note with it: 6 days; doses 0.05, 0.5 and 5 μM. The protocol: T98G (FIG. 21A), MDA-MB 231 (FIG. 21B), and HCT116 (FIG. 21C) cells were exposed to CP-DN-CEBPB and CP-DN-CEBPD for 6 days at doses of 0.05 μM 0.5 μM, and 5 μM while growing in soft agar. Growth was inhibited by does as low as 0.5 μM. T98G (FIG. 21D), MDA-MB 231 (FIG. 21E), and HCT116 (FIG. 21F) cells were exposed to CP-DN-CEBPB and CP-DN-CEBPD for 6 days at doses of 0.05 μM 0.5 μM, and 5 μM while growing on culture plates. Growth was inhibited by does as low as 0.5 μM.

Assay [5] has as its system MDA-MB 231 cells. The assay can be described thus: Scratch migration assay, MDA-MB 231. Particulars: 20 hours, 20 μM or 40 μM. The procedure:
Monolayers of MDA-MB 231 or T98G cells were subjected to formation of a scratch at 0 time and cultured for 20 hours in 20 μM or 40 μM CP-DN-CEBPB and CP-DN-CEBPD. Multiple images taken at 0 time and after 20 hours were analyzed for gap width of the scratches into which cells migrated or not. Example images for T98G are found in FIG. 22A, with compiled data for the T98G samples in FIG. 22B. Example images for MDA-MB 231 are found in FIG. 22C, with compiled data for the MDA-MB 231 samples in FIG. 22D.

The test system of assay [6] is MCF7 cells. Description: Apoptotic nuclei, propidium iodide flow cytometry, MCF7. The note with it: 20 μM, 3 days, vs untreated cells. The procedure: (§3) MDA-MB-231, MCF7, HCT116 and T98G cancer cell lines were treated for 3 days with 20 μM CP-dn-CEBPB and CP-dn-CEBPD peptides from stock solutions prepared without additives. Cultures were stained with propidium iodide and assessed for proportion of cells with apoptotic nuclei by flow cytometry.
(In general: In flow cytometry, cells or beads pass a laser one at a time.)

Assay [7] relates to T98G cells. The assay can be described thus: Apoptotic nuclei, propidium iodide flow cytometry, T98G. Particulars: 20 μM, 3 days, vs untreated cells. The protocol: as §3
Assay [8] deals with HCT116 cells. Description: Combination with gamma radiation, cell number, HCT116. Particulars: 2 Gy or 5 Gy; peptide 0.05, 0.5 or 5 μM one day later, 6 days; CI<1 indicates synergism. The procedure:
Replicate cultures of T98G and HCT116 cells were exposed to 2 Gy or 5 Gy of gamma radiation. One day later, the cultures were treated with 0.05 μM, 0.5 μM, or 5 μM CP-dn-CEBPB and CP-dn-CEBPD peptides, maintained for 6 days, and then assessed for cell number. The bar graphs of FIGS. 24A (T98G, CP-dn-CEBPB), 24C (T98G, CP-dn-CEBPBD, 24E (HCT116, CP-dn-CEBPD), and 24G (HCT116, CP-dn-CEBPD) show relative cell numbers for each condition as compared to untreated controls. The line graphs of FIGS. 24B (T98G, CP-dn-CEBPB), 24D (T98G, CP-dn-CEBPBD, 24F (HCT116, CP-dn-CEBPB), and 24H (HCT116, CP-dn-CEBPD) show the response as normalized in each case so that 100 represents the relative number of surviving cells that received the indicated level of radiation treatment, but no peptide treatment. Calculated Combination Indexes (CI) are T98G, CI=0.61±0.05 for CP-dn-CEBPB, 0.68±0.07 for CP-dn-CEBPD; HCT116, 0.89±0.04 for CP-dn-CEBPB, 0.86±0.05 for CP-dn-CEBPD. CI=1 indicates additivity; CI<1 indicates synergism; CI>1 indicates antagonism.

Turning to “RQIKIWFQNRRMKWKKLVELSAENEKLHQRVEQLTRDLAGLRQFFK [CP-DN-CEBPD]”, in assay [1], the “growth and survival of T98G cells, time course” value is reported as “decreased as compared to untreated control cells”; the “number of T98G cells” value is “dose-responsively decreased”; the “morphology, growth and survival of T98G cells” value was “dose-responsively affected the morphology, growth and survival”; the “effect of BSA in stock buffer on potency in suppressing growth and survival” value was “greatly increased the potency”. The “growth and survival / numbers of MCF7 cells” value in assay [2] was “decrease in growth and survival”. In addition, the “number of MCF10A cells” value in assay [3] is listed as “did not cause a dose-dependent decrease”. In addition, in assay [4], the “lowest dose at which growth was inhibited, soft agar” value was 0.5 µM. For the same sequence, in assay [5], the “cell migration into scratch (gap width)” value is given as “able to inhibit migration”. In assay [6], the “proportion of cells with apoptotic nuclei” value (from here on “proportion of cells”) was “increased apoptotic cell death”. Besides, in assay [7], the “proportion of cells” value is recorded as “increased apoptotic cell death”. In assay [8], the “Combination Index (CI) with gamma radiation” value is given as 0.86±0.05.
Turning to “RQIKIWFQNRRMKWKKLETQHKVLELTAENERLQKKVEQLSRELSTLRNLFKQL [CP-DN-CEBPB]”, in assay [1], the “growth and survival of T98G cells, time course” value is on record as “decreased as compared to untreated control cells”; the “number of T98G cells” value was “dose-responsively decreased”; the “morphology, growth and survival of T98G cells” value is “dose-responsively affected the morphology, growth and survival”; the “effect of BSA in stock buffer on potency in suppressing growth and survival” value is “greatly increased the potency”. For the same sequence, in assay [2], the “growth and survival / numbers of MCF7 cells” value is “decrease in growth and survival”. In addition, in assay [3], the “number of MCF10A cells” value is recorded as “did not cause a dose-dependent decrease”. In assay [4], the “lowest dose at which growth was inhibited, soft agar” value is 0.5 µM. Besides, the “cell migration into scratch (gap width)” value in assay [5] was “able to inhibit migration”. The “proportion of cells” value in assay [6] is listed as “increased apoptotic cell death”. For the same sequence, the “proportion of cells” value in assay [7] is “increased apoptotic cell death”. Besides, the “Combination Index (CI) with gamma radiation” value in assay [8] is reported as 0.89±0.04.

The values above are taken from US12428455B2, “Dominant negative CEBPB and CEBPD proteins and methods of use for decreasing viability of neoplastic cells” (The Trustees of Columbia University in the City of New York, priority 2018, dated 2025).
